SMILES strings stand for the structures.

The test system of the assay is PC-3. Briefly: Cytotoxicity against human PC3 cells by MTT assay. It counts as functional, cell-based.
In the case of `N=C(N)NCCC[C@@H](NC(=O)c1cccc(O)c1O)C(=O)N[C@@H](COC(=O)[C@H](CO)NC(=O)[C@@H](CCCNC(=N)N)NC(=O)c1cccc(O)c1O)C(=O)O` [DIVANCHROBACTIN], the IC50 result is on record as “Not Active”.

For the molecule `N=C(N)NCCC[C@@H](NC(=O)c1cccc(O)c1O)C(=O)N[C@@H](CO)C(=O)O` [VANCHROBACTIN], the IC50 result was “Not Active”.

Consider `N=C(N)NCCC[C@@H](NC(=O)c1cccc(O)c1O)C(=O)N[C@@H](COC(=O)[C@H](COC(=O)[C@H](CO)NC(=O)[C@@H](CCCNC(=N)N)NC(=O)c1cccc(O)c1O)NC(=O)[C@@H](CCCNC(=N)N)NC(=O)c1cccc(O)c1O)C(=O)O` [TRIVANCHROBACTIN], for which the IC50 entry is recorded as “Not Active”.

(Values after ChEMBL document CHEMBL1166002, “Vanchrobactin and anguibactin siderophores produced by Vibrio sp. DS40M4” (J Nat Prod, 2010).)
